Laboratory results reported in patent US20250085273A1, “NOVEL RAPID DRUG DISCOVERY FOR SEPSIS AND AGENTS FOR USE AS SEPSIS THERAPY” (priority 2023, published 2025).

Tests used:
[1] = target: T1, α2C (Homo sapiens, UniProt P18825); details: read-out: affinity (Ki) α2C; cited from earlier work
T1 sequence (P18825 1-462): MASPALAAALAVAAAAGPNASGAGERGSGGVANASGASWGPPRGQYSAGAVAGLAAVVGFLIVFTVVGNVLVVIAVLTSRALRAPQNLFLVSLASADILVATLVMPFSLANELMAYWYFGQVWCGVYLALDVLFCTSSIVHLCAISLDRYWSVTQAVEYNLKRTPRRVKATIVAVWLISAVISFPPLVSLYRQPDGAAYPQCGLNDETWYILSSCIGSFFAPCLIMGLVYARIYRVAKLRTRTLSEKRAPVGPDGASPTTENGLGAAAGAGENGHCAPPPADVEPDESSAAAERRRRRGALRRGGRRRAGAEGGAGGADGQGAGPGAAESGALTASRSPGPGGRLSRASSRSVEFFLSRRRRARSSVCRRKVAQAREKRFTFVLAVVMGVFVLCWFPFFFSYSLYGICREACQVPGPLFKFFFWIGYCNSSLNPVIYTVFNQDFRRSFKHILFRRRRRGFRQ

[2] = target: histamine H1 receptor (Homo sapiens, UniProt P35367); details: read-out: affinity for histamine H1 receptor; cited from earlier work
histamine H1 receptor, sequence (P35367 whole entry, species assumed): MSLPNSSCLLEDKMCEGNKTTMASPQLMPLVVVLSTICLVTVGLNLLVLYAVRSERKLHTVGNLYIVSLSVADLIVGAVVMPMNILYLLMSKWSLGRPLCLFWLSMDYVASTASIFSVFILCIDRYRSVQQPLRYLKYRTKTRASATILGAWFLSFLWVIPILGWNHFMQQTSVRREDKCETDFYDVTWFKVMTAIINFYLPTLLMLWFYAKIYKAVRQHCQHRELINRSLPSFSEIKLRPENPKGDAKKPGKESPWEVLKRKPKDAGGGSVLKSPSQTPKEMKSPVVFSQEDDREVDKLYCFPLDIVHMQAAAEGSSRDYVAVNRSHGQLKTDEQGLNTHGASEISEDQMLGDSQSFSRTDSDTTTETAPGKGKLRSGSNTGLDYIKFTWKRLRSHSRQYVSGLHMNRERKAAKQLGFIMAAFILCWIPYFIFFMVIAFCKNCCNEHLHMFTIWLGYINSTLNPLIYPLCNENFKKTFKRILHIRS

[3] = target: T2, noradrenergic α1A (Homo sapiens, UniProt P35348); details: read-out: affinity (Ki) α1A; cited from earlier work
T2 sequence (P35348 1-466): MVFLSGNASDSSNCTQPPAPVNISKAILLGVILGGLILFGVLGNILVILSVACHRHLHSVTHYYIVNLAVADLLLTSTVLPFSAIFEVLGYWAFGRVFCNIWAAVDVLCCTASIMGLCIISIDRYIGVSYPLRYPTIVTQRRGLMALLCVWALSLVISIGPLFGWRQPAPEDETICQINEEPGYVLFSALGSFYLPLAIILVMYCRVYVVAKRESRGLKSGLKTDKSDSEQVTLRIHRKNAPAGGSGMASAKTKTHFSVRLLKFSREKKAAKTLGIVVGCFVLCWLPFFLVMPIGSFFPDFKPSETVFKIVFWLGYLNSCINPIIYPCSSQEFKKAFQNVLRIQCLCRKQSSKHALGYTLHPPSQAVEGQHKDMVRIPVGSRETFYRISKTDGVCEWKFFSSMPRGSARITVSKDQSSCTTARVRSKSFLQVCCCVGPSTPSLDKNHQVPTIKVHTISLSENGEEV

[4] = tested on: 3-dpf Zebrafish Embryos Challenged with LPS (P. aeruginosa 60 μg/mL); format: in vivo, Danio rerio; details: P. aeruginosa LPS 60 μg/mL, compound 10 μM
Procedure, shortened: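 3-dpf PTU-treated AB zebrafish embryos exposed to 60 μg/mL P. aeruginosa LPS plus 10 μM compound (final) at 28.5 °C, n=16 per compound. Tail edema and mortality scored at 6 and 24 h post exposure; rescue judged against LPS-only controls at 24 h.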

[5] = target: D3 (Homo sapiens, UniProt P35462); details: read-out: affinity (Ki) D3; cited from earlier work
D3, sequence (P35462 whole entry): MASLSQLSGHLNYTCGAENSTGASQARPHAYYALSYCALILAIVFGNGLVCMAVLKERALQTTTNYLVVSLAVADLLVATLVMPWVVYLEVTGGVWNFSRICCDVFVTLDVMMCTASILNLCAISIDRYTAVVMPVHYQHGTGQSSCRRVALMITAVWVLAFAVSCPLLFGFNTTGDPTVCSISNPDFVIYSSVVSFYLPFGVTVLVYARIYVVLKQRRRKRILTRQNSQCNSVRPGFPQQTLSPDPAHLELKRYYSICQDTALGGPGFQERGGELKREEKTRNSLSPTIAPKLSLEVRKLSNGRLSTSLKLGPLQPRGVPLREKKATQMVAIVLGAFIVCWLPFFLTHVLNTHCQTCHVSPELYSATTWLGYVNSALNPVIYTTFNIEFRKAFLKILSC

[6] = tested on: zebrafish (4 dpf pre-treated, LPS exposure at 5-dpf) challenged with P. aeruginosa LPS 60 μg/mL; format: in vivo, Danio rerio
Procedure, shortened: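 PTU-treated 4 dpf zebrafish embryos received a 24-hour drug pre-treatment at 28.5 °C, alongside an untreated parallel group, before challenge at 5 dpf with P. aeruginosa LPS at 60 μg/mL. Tail edema and mortality were scored at 6 and 24 h post exposure, followed by a neurobehavioral test.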

[7] = number of n = 16 fish, 24-hour 10 μM drug pre-treatment
[8] = number of n = 16 fish, no 24-hour pre-treatment

Compound: O=c1ccc2ccc(OCCCCN3CCN(c4cccc5sccc45)CC3)cc2[nH]1 [Compound 45, Brexpiprazole]
- Ki [1]: 0.59 nM
- Ki [2]: 19 nM
- Ki [3]: 3.8 nM
- Percent Rescue (Mort + Tail Edema) ([4]; 3-dpf embryos, 24 hours, n=16): 100%
- rescue of tail edema and mortality (sepsis rescue rate) at 3-dpf ([4]; 3-dpf, 24 hours): 100%
- 3 dpf Embryos Percent Rescue (Mort + Tail Edema) ([4]; initial 3-dpf screen shown for reference): 100%
- Ki [5]: 1.1 nM
- Pre-Treatment Rescue (n = 16) ([6]; 24-hour drug pre-treatment, P. aeruginosa LPS 60 μg/mL): 94%
- No Pre-Treatment Rescue (n = 16) ([6]; no 24-hour drug pre-treatment, P. aeruginosa LPS 60 μg/mL): 94%
- 24 hour Tail Edema, No-Drug Pretreatment ([6]; number of n = 16 fish, 10 μM drug with LPS 60 μg/mL, no 24-hour pre-treatment): 1 fish
- 24 Hour Mortality and Tail Edema, Drug Pretreatment [6, 7]: 1 fish
- 24 Hour Mortality, Drug Pretreatment [6, 7]: 1 fish
- 24 hour Tail Edema, Drug Pretreatment ([6]; number of n = 16 fish, 24-hour 10 μM drug pre-treatment before LPS 60 μg/mL): 0 fish
- 24 Hour Mortality and Tail Edema, No-Drug Pretreatment [6, 8]: 1 fish
- 24 Hour Mortality, No Drug Pretreatment [6, 8]: 0 fish
